Laboratory results as given in article PMC12069340 (Frontiers in Cellular and Infection Microbiology, 2025).
Counter-ions that a name gives are not always drawn. Like-named read-outs stand apart in the source and are kept apart here.

What was measured:
[1] = test system: A/PuertoRico/8/1934 (H1N1) virus; assay: microbe, parasite or virus in culture; type: cell-based, influenza A virus
in vitro = conditions: human, Relative Viability (%)
[2] = Influenza A virus, H1N1, U-937, 48 h; read-out: NA Inhibition (%)
[3] = Influenza A virus, H1N1, U-937, 48 h, read-out: NA Inhibition (%)

| Compound | inhibition at 20 µM [1, 2] [%] | viability at 20 µM (in vitro) [%] | inhibition at 20 µM [1, 3] [%] | NA Inhibition (%) ([1]; 20 µM) |
| --- | --- | --- | --- | --- |
| CNC(=C[N+](=O)[O-])NCCSCc1ccc(CN(C)C)o1 [Ranitidine] | -11.1 | 109 | – | – |
| C[C@](N)(Cc1ccc(O)c(O)c1)C(=O)O [Methyldopa] | – | 104 | -13.4 | – |
| O=C1c2cccc3c2[C@H](CCC3)CN1[C@@H]1CN2CCC1CC2 [Palonosetron HCl] | -5.5 | 102 | – | – |
| O=C(O[C@H]1CN2CCC1CC2)N1CCc2ccccc2[C@@H]1c1ccccc1 [Solifenacin succinate] | 22.6 | 102 | – | – |
| CC(CCc1ccccc1)NCC(O)c1ccc(O)c(C(N)=O)c1 (centres unmarked) [Labetalol HCl] | – | 101 | -17.2 | – |
| NC[C@H](CC(=O)O)c1ccc(Cl)cc1 [(R)-baclofen] | 46.4 | 112 | – | – |
| CCCC(=O)Nc1ccc(OCC(O)CNC(C)C)c(C(C)=O)c1 (centres unmarked) [Acebutolol HCl] | – | 106 | -13.9 | – |
| COc1cc2nc(N(C)CCCNC(=O)C3CCCO3)nc(N)c2cc1OC (centres unmarked) [Alfuzosin HCl] | – | 110 | -12.3 | – |
| N#Cc1ccc2[nH]cc(CCCCN3CCN(c4ccc5oc(C(N)=O)cc5c4)CC3)c2c1 [Vilazodone HCl] | -49.6 | 98.9 | – | – |
| CN(C)CCCN1c2ccccc2Sc2ccc(Cl)cc21 [Chlorpromazine HCl] | 53.3 | 115 | – | – |
| N#Cc1ccccc1-c1cc(-c2ccccn2)cn(-c2ccccc2)c1=O [Perampanel] | -30.9 | 98.8 | – | – |
| CN(C)C(=O)C(CCN1CCC(O)(c2ccc(Cl)cc2)CC1)(c1ccccc1)c1ccccc1 [Loperamide HCl] | – | 116 | 23.2 | – |
| CC(C[N+](C)(C)C)OC(N)=O (centres unmarked) [Bethanechol chloride] | 2.2 | 103 | – | – |
| COc1ccccc1N1CCN(CC(O)COc2cccc3ccccc23)CC1 (centres unmarked) [Naftopidil] | – | 102 | 13.4 | – |
| CN1CCC(=C2c3ccccc3CC(=O)c3sccc32)CC1 [Ketotifen Fumarate] | -4.7 | 108 | – | – |
| COc1cc2nc(N3CCN(C(=O)C4CCCO4)CC3)nc(N)c2cc1OC (centres unmarked) [Terazosin] | -47.2 | 87.8 | – | – |
| Nc1nc(CC(=O)Nc2ccc(CCNC[C@H](O)c3ccccc3)cc2)cs1 [Mirabegron] | – | 102 | -9.6 | – |
| c1ccc(CC2=NCCN2)cc1 [Tolazoline HCl] | 14.5 | 86 | – | – |
| O=C1c2c(O)cc(O)cc2O[C@H](c2cc(O)c(O)c(O)c2)[C@H]1O [Dihydromyricetin] | 9.3 | 95.3 | – | – |
| C[N+]1(C)CCC(=C(c2ccccc2)c2ccccc2)CC1 [Diphemanil Methylsulfate] | -0.6 | 98.2 | – | – |
| CNCC(O)c1ccc(O)cc1 (centres unmarked) [Synephrine] | – | 90.5 | 12.3 | – |
| CNS(=O)(=O)CCc1ccc2[nH]cc(C3CCN(C)CC3)c2c1 [Naratriptan] | 5.8 | 102 | – | – |
| Cc1cc(C(C)(C)C)c(O)c(C)c1CC1=NCCN1 [Oxymetazoline hydrochloride] | – | 113 | -21 | – |

| Compound | inhibition at 20 µM [1, 2] [%] | viability at 20 µM (in vitro) [%] | inhibition at 20 µM [1, 3] [%] | NA Inhibition (%) ([1]; 20 µM) |
| --- | --- | --- | --- | --- |
| Cc1cccc(Cc2c[nH]cn2)c1C [Detomidine HCl] | – | 109 | 31.2 | – |
| Cc1cccc([C@H](C)c2cnc[nH]2)c1C [Dexmedetomidine HCl (Precedex), Dexmedetomidine HCl] | – | 120 | – | -18.5% |
| Cc1c(-c2ccccc2)oc2c(C(=O)OCCN3CCCCC3)cccc2c1=O [Flavoxate HCl] | 8.2 | 118 | – | – |
| C=CC[N+]1([C@H]2C[C@H]3[C@@H]4CC[C@H]5C[C@H](O)[C@@H](N6CCOCC6)C[C@]5(C)[C@H]4CC[C@]3(C)[C@H]2OC(C)=O)CCCC1 [Rocuronium Bromide] | 16.7 | 106 | – | – |
| CC(C)NCC(O)COc1ccc(CCOCC2CC2)cc1 (centres unmarked) [Betaxolol] | – | 115 | 6.7 | – |
| O=C1CC[C@@]2(O)[C@H]3Cc4ccc(O)c5c4[C@@]2(CCN3CC2CC2)[C@H]1O5 [Naltrexone HCl] | – | 107 | 10.1 | – |
| CN1[C@@H]2CC[C@H]1C[C@@H](OC(=O)c1c[nH]c3ccccc13)C2 [Tropisetron] | 55.4 | 80.9 | – | – |
| CN(C)CC/C=C1/c2ccccc2COc2ccc(CC(=O)O)cc21 [Olopatadine HCl] | -11.6 | 122 | – | – |
| CCN1CCCC1CNC(=O)c1cc(S(=O)(=O)CC)c(N)cc1OC (centres unmarked) [Amisulpride] | 6.2 | 89.7 | – | – |
| Cc1cccn2c(=O)c(-c3nnn[nH]3)cnc12 [Pemirolast potassium] | -23.7 | 108 | – | – |
| NC12CC3CC(CC(C3)C1)C2 [Amantadine HCl] | 69.2 | 110 | – | – |
| CCN1CCC[C@H]1CNC(=O)c1cc(S(N)(=O)=O)ccc1OC [Levosulpiride] | 2.8 | 104 | – | – |
| COc1ccc2cccc(CCNC(C)=O)c2c1 [Agomelatine] | 18.4 | 89.1 | – | – |
| CCCC(CCC)C(=O)O [Valproic acid sodium salt] | -18.5 | 113 | – | – |
| CC(C)C(=O)Oc1ccc(CO)cc1[C@H](CCN(C(C)C)C(C)C)c1ccccc1 [Fesoterodine Fumarate] | -27.7 | 114 | – | – |
| CN(C)CCN(Cc1ccccc1)c1ccccn1 [Tripelennamine HCl] | -0.2 | 105 | – | – |
| C[C@H](Cc1cc2c(c(C(N)=O)c1)N(CCCO)CC2)NCCOc1ccccc1OCC(F)(F)F [Silodosin] | – | 115 | -41.7 | – |
| CCC(COC(=O)c1cc(OC)c(OC)c(OC)c1)(c1ccccc1)N(C)C (centres unmarked) [Trimebutine] | – | 108 | 43.7 | – |
| Clc1ccc2nsnc2c1NC1=NCCN1 [Tizanidine HCl] | – | 78.9 | -28.3 | – |
| CC(C)(C)c1ccc(C(=O)CCCN2CCC(OC(c3ccccc3)c3ccccc3)CC2)cc1 [Ebastine] | – | 105 | – | – |
| O=c1ccc2ccc(OCCCCN3CCN(c4cccc5sccc45)CC3)cc2[nH]1 [Brexpiprazole] | 54 | 97.2 | – | – |
| COc1cc2c(cc1OC)[C@@H]1Cc3ccc(OC)c(OC)c3CN1CC2 [Rotundine] | 17.4 | 112 | – | – |
| CCN(Cc1ccc(Cl)nc1)/C(=C/[N+](=O)[O-])NC [Nitenpyram] | -32.4 | 110 | – | – |

| Compound | inhibition at 20 µM [1, 2] [%] | viability at 20 µM (in vitro) [%] | inhibition at 20 µM [1, 3] [%] | NA Inhibition (%) ([1]; 20 µM) |
| --- | --- | --- | --- | --- |
| CN(C)CCC(c1ccc(Cl)cc1)c1ccccn1 (centres unmarked) [Chlorpheniramine Maleate] | 1 | 102 | – | – |
| CN[C@H](CC(=O)O)C(=O)O [NMDA (N-Methyl-D-aspartic acid), N-Methyl-D-aspartic acid] | – | 113 | -15.5 | – |
| CC(C)COc1ccc(CNC(=O)N(Cc2ccc(F)cc2)C2CCN(C)CC2)cc1 [Pimavanserin] | 18.1 | 113 | – | – |
| OC[C@@H](O)CN1CCN(c2ccccc2)CC1 [Levodropropizine] | 35.7 | 104 | – | – |
| CC(=O)OCC[N+](C)(C)C [Acetylcholine Chloride] | -5.4 | 104 | – | – |
| CCOc1cc(N)c(Cl)cc1C(=O)NCC1CN(Cc2ccc(F)cc2)CCO1 (centres unmarked) [Mosapride Citrate] | 32.4 | 112 | – | – |
| CN(C)C(=O)Oc1cccc([N+](C)(C)C)c1 [Neostigmine Bromide] | 2 | 114 | – | – |
| Cc1cccc(C)c1NC(=O)CN1CCCC1=O [Nefiracetam] | 6 | 105 | – | – |
| Cc1nc2n(c(=O)c1CCN1CCC(c3noc4cc(F)ccc34)CC1)CCCC2O (centres unmarked) [Paliperidone] | 9.3 | 110 | – | – |
| CCN(CC)CC#CCOC(=O)C(O)(c1ccccc1)C1CCCCC1 (centres unmarked) [Oxybutynin] | – | 104 | -3.6 | – |
| CN1CCC(=C2c3ccccc3CCn3c(C=O)cnc32)CC1 [Alcaftadine] | -0.9 | 188 | – | – |
| CCC1(c2cnc[nH]2)Cc2ccccc2C1 [Atipamezole] | – | 118 | 38.2 | – |
| N=C(N)NC(=O)Cc1c(Cl)cccc1Cl [Guanfacine Hydrochloride] | 11 | 102 | – | – |
| CCCN[C@H]1CCc2nc(N)sc2C1 [Pramipexole dihydrochloride monohydrate] | – | 100 | – | 2.6 |
| CC(C)(C)NC[C@H](O)COc1nsnc1N1CCOCC1 [Timolol Maleate] | – | 91.2 | 33.2 | – |
| CN1CCN2c3ccccc3Cc3ccccc3C2C1 (centres unmarked) [Mianserin HCl] | 26.3 | 91.9 | – | – |
| Clc1cccc(Cl)c1N=C1NCCN1 [Clonidine HCl] | – | 99.2 | -24.1 | – |
| COCCc1ccc(OCC(O)CNC(C)C)cc1 (centres unmarked) [Metoprolol Tartrate] | – | 106 | -24.2 | – |
| CN(C)C(=O)Oc1ccc[n+](C)c1 [Pyridostigmine Bromide] | -34.1 | 88.2 | – | – |
| O=C(O[C@H]1C[N+]2(CCCOc3ccccc3)CCC1CC2)C(O)(c1cccs1)c1cccs1 [Aclidinium Bromide] | 13.8 | 194 | – | – |
| OCCOCCN1CCN(C2=Nc3ccccc3Sc3ccccc32)CC1 [Quetiapine Fumarate] | – | 104 | -29.1 | – |
| Cc1ccccc1C(OCCN(C)C)c1ccccc1 (centres unmarked) [Orphenadrine Citrate] | – | 106 | – | – |
